Experimental data reported in article PMC7738869, “A novel STAT3 inhibitor W2014-S regresses human non-small cell lung cancer xenografts and sensitizes EGFR-TKI acquired resistance” (Theranostics, 2021).

What was measured:
[1] = biological target: full-length wild-type STAT3 (Homo sapiens, UniProt P40763); test: Surface plasmon resonance analysis of binding to STAT3; conditions: SPR
Method: Biacore 8K and Biacore Insight Evaluation software were used to analyze the interaction between the agents and the protein full-length wild-type STAT3 to detect the binding affinity. Purified STAT3 (100 μg/mL) without Tris and glycerin was injected onto the CM5 Chip (GE, USA) for immobilization. Several concentrations of W2014-S or W2014-R dissolved in running buffer (1×PBS with filtration, 0.01% DMSO) were flown over the chip to produce response signals. The kinetics and affinities were calculated by the Biacore Insight Evolution software, and the results were determined as the binding affinity (KD).

PC-9 cells = test: Colony formation assay, PC-9; type: cell-based, human; conditions: PC-9, as low as 0.3 μM
PC-9/GR cells = test: Cell apoptosis assay (Annexin V-FITC/PI flow cytometry), PC-9/GR; type: cell-based, human; conditions: 72 h
Method: Briefly, aliquots of 2 × 10^5 cells were seeded into 6-well plates and incubated for 24 h at 37 °C. […] After trypsinization and gently washing cells once with medium, the cells were washed twice with cold PBS. The precipitation was resuspended by 400 μL of 1 × binding buffer, and then resuspended cells were transferred into new 1.5 mL EP tubes. Then 3 μL of Annexin V-FITC and 5 μL of propidium iodide were added to the resuspended cells with further incubation at room temperature for 15 min in the dark. The analysis was done on Guava easyCyte (USA) and FlowJo 7.6 software.

c-Caspase-7 = test: Western blot of c-Caspase-7 in A549 and PC-9 cells; type: cell-based, human
Method: (§1) Cells or tumor tissue were lysed with RIPA buffer (Beyotime, Shanghai, China) supplemented with protease inhibitors (Beyotime, Shanghai, China) and phosphatase inhibitors (Bimake, USA). Lysates were denatured by heating for 5 min at 99 °C and loaded on 4-10% SDS-polyacrylamide gel electrophoresis. Then the proteins were transferred to polyvinylidene fluoride (PVDF) membranes (Millipore, USA). The membranes were blocked and probed with primary antibodies and secondary HPR-conjugated antibodies. At last the membranes were detected by chemiluminescence (Tanon, Shanghai, China). For co-immunoprecipitation experiments, 293T cells were plated and grew to about 80% confluency, then co-transfected with plasmids of HA-STAT3 and Flag-STAT3 using Lipofectamine 2000. After 24 h, cells were treated with different concentrations of W2014-S for following 24 h, and stimulated with IL-6 (100 ng/mL) for 1 h. Cells were lysed with IP RIPA buffer (Beyotime, Shanghai, China) supplemented with protease inhibitors (Beyotime, Shanghai, China) and phosphatase inhibitors (Bimake, America), and lysates were cultured with Anti-flag Affinity Gel (B23102, Bimake, USA) overnight at 4 ℃. The gel was washed by PBST for three times and added 1×loading buffer and denatured by heating for 5 min at 99 ℃. Then the proteins were resolved on SDS-PAGE, transferred to PVDF membranes and analysed with immunoblotting.

pY705-STAT3 = test: Western blot of pY705-STAT3 in A549 cells; type: cell-based, human
Method: as §1

STAT3 [2] = test: STAT3-dependent dual-luciferase reporter assay in 293T cells; type: cell-based, human; conditions: 293T, 0, 0.3, 1 μM, 24 h
Method: (§2) The STAT3-dependent luciferase reporter, pGL3-STAT3, contained seven copies of the STAT3-specific binding sequence ([…]) in the C-reactive protein gene promoter, and drove firefly luciferase expression. The new construct was confirmed by sequencing. For luciferase studies, 293T cells or A549 cells in 96-well plates were transiently co-transfected with the appropriate plasmids (10 ng TKRL as internal control vector for normalizing and 50 ng of pGL3-STAT3) using Lipofectamine 2000 (11668500, Invitrogen, Carlsbad, CA, USA) which was following the manufacturer's protocol. After 24 h, HEK-293T cells were treated with 0-1 μM W2014-S for 24 h, and stimulated with IL-6 (100 ng/mL, PeproTech) for 1 h or EGF (50 ng/mL, PeproTech) for 30 min. Subsequently, cytosolic extracts were prepared for dual-luciferase reporter assay.

STAT3 [3] = test: STAT3-dependent dual-luciferase reporter assay in A549 cells; type: cell-based, human; conditions: A549, 0, 0.3, 1 μM, 24 h
Method: as §2

A549 xenografts = test: A549 tumor xenografts in nude mice; type: in vivo
Method: (§3) To establish cell xenograft model, nude mice were injected subcutaneously with A549 cells (2×10^6) or PC-9/GR cells (4×10^6). For PDX model, the PDX sample was from The Jackson Laboratory. The model ID is TM00192/LG0567F. For this patient, the primary site is lung, the initial and diagnosis and final diagnosis is lung adenocarcinoma. The stage/grade is AJCC IB/grade 3. […] The sample type is surgical resection. […] The tumor sample were cut into approximately 1 mm^3, and the tissue was pushed under skin of mice by TROCHAR. When tumor volumes reached approximately 100 mm^3, mice were randomly distributed into groups of 7 mice. […] Tumor size was measured every two days by vernier caliper. The average tumor volume in each group was calculated based on the equation for a prolate spheroid (tumor volume = (short-diameter)^2 × large-diameter × π / 6 ) and expressed in mm^3.

[4] = system: PDX (TM00192/LG0567F, lung adenocarcinoma); test: Lung cancer PDX tumor xenografts in nude mice; type: in vivo
Method: as §3

A549 cells = test: Transwell cell invasion assay, A549; conditions: A549, 1 μM
Method: Transwell invasion assays were performed as previously reported [37] using Transwell chamber (Costar, USA). […] Data from triplicates experiments were pooled and plotted as shown.

[5] = gefitinib 2 μM and/or W2014-S 1 μM

Chain of full-length wild-type STAT3 (P40763 whole entry): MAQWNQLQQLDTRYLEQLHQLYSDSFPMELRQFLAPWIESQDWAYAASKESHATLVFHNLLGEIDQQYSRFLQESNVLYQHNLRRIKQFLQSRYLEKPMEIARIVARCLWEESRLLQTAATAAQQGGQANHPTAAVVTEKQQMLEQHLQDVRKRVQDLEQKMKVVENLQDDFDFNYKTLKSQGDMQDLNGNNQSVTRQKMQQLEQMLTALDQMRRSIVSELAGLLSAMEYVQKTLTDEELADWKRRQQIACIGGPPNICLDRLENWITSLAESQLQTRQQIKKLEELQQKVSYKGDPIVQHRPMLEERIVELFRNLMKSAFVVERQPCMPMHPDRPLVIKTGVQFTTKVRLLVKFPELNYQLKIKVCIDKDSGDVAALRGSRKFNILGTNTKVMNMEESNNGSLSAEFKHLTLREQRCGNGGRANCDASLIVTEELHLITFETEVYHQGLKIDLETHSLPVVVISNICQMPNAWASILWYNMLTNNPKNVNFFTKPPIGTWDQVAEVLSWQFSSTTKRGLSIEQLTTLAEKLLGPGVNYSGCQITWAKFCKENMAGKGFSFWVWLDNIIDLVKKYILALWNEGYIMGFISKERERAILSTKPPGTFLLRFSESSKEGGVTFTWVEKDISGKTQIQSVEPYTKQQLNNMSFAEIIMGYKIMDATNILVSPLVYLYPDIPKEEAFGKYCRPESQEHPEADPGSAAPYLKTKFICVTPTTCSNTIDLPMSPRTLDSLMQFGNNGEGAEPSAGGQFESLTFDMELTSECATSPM

SMILES: C[C@H](Oc1ccc(-c2nc3nc(C4=CCN(C(=O)OC(C)(C)C)CC4)ccc3[nH]2)cc1)c1ccccc1 [W2014-S]
- Kd [1]: 3.64 µM
- colony formation (PC-9 cells): significantly suppressed the colony formation
- effect on gefitinib-induced apoptosis (PC-9/GR cells; W2014-S 1 μM + gefitinib 2 μM): significantly enhanced gefitinib-induced apoptosis
- Q1 (PC-9/GR cells; [5]): 0.164%
- Q2 (PC-9/GR cells; [5]): 4.50%
- Q3 (PC-9/GR cells; [5]): 3.47%
- Q4 (PC-9/GR cells; [5]): 91.9%
- cleavage of caspase-7 (c-Caspase-7): induced
- phosphorylation level of STAT3 (pY705-STAT3; A549, 0, 1, 3 and 5 μM, 24 h): inhibit the phosphorylation level of STAT3 in a dose dependent manner, and more potent than W2014-R
- phosphorylation of STAT3 at Y705, time course (pY705-STAT3; A549, 1 μM, 0-24 h): inhibited after 1 h treatment
- STAT3-dependent luciferase reporter activity induced by IL-6 (STAT3 [2]): dose-dependently inhibited
- STAT3 transcriptional activity (luciferase reporter) (STAT3 [3]): inhibited
- body weights and signs of toxicity during treatment (A549 xenografts; A549 xenograft mice, 5 or 15 mg/kg daily, 21 d): no significant changes in body weights, or obvious signs of toxicity
- level of pY705-STAT3 in tumor (western blot) (A549 xenografts; A549 xenografts): significantly suppressed the level of pY705-STAT3
- growth of xenografts (A549 xenografts; A549 xenografts, i.p. 5 or 15 mg/kg daily, 21 d): significantly inhibited growth
- expression of Ki-67 in tumor (IHC) (A549 xenografts; A549 xenografts, vs vehicle): significantly reduced
- level of pY705-STAT3 in tumor (western blot) ([4]; PDX): significantly suppressed the level of pY705-STAT3
- body weights and signs of toxicity during treatment ([4]; PDX mice, 5 or 15 mg/kg daily, 21 d): no significant changes in body weights, or obvious signs of toxicity
- growth of xenografts ([4]; PDX, i.p. 5 or 15 mg/kg daily, 21 d): significantly inhibited growth
- expression of Ki-67 in tumor (IHC) ([4]; PDX, vs vehicle): significantly reduced
- cell invasion (A549 cells): suppressed
